Molecules are shown by their SMILES. Positions of bridges follow the written chain, without caps; N, C: chain ends. Non-standard residues stand in square brackets, D forms with d. Residues, ends and D or L forms follow the SMILES beside them. *: point of attachment. Ileψ(thiazoline)Cys = CC[C@H](C)[C@H](N)C1=N[C@H](C(=O)*)CS1; dOrn = NCCC[C@@H](N)C(=O)O

The subject of the assay is exponential phase P. aeruginosa. The assay can be described thus: Susceptibility testing of exponential phase planktonic P. aeruginosa cells (suspension kill). It counts as cell-based, Pseudomonas aeruginosa. To be noted: bacitracin 33 U/ml, 20 sec.-20 min.

Regarding `CC[C@H](C)[C@H](N)C1=N[C@H](C(=O)N[C@@H](CC(C)C)C(=O)N[C@H](CCC(=O)O)C(=O)N[C@H](C(=O)N[C@H]2CCCCNC(=O)[C@H](CC(N)=O)NC(=O)[C@@H](CC(=O)O)NC(=O)[C@H](Cc3cnc[nH]3)NC(=O)[C@@H](Cc3ccccc3)NC(=O)[C@H]([C@@H](C)CC)NC(=O)[C@@H](CCCN)NC2=O)[C@@H](C)CC)CS1` [bacitracin] ({Ileψ(thiazoline)Cys}-L[dE]IK[dOrn]I[dF]H[dD]N; lactam 4-C), the reduction of viability result was “ineffective and did not result in reduction of viability”.
